According to patent US11147792B2, “Inhibitors of microbially induced amyloid” (Axial Therapeutics, Inc, priority 2017, dated 2021):
Like-named read-outs stand apart in the source and are kept apart here.

Experiments:
Assay type in all cases: biochemical
[1] = molecular target: T1, E. coli CsgA (Escherichia coli, UniProt P28307); experiment: In vitro ThioflavinT assay of CsgA aggregation
T1 construct: made in house; host or cells: E. coli NEB 3016 slyD::kan, pET11d
Experimental: In Vitro ThioflavinT Assay to Determine Effects of Compounds on CsgA Aggregation.
To assess the effects of compounds on aggregation of E. coli CsgA, a cell-free assay was performed using purified CsgA and Thioflavin T. In the assay, histidine-tagged CsgA was over-expressed in E. coli NEB 3016 slyD::kan cells harboring a pET11d vector containing csgA with the sequence for 6 histidine residues added to the C-terminus and without the Sec signal (amino acid 1-22) sequence. To induce over-expression of CsgA, 0.5 mM isopropyl β-D-1-thiogalactopyranoside (“IPTG”) was added to cultures with an optical density at 600 nm (OD600) of 0.8-1, and induced cells were cultured at 37° C. for 1 hour prior to harvest via centrifugation. Cells were lysed under denaturing conditions with 8 M guanidine hydrochloride in 50 mM potassium phosphate buffer pH 7.3, and CsgA was purified via immobilized-metal affinity chromatography by batch purification with Nickel-NTA agarose and a combination of low pressure and gravity flow through a disposable polypropylene column, including washes under low pressure applied manually via application of a syringe plunger to the column with 50 mM potassium phosphate buffer pH 7.3 followed by 12.5 mM imidazole in 50 mM potassium phosphate buffer pH 7.3, and elution by gravity flow with 125 mM imidazole in 50 mM potassium phosphate buffer pH 7.3. Buffers with imidazole were freshly prepared prior to the protein purification. Purified CsgA was passed through a 30 kDa molecular weight cut-off filter and passed through a desalting column. All steps of the CsgA purification in the absence of guanidine hydrochloride were conducted in rapid succession with as little delay as possible. The assay was conducted in 96-well black microplates with 40 μM ThioflavinT, 1% DMSO, CsgA at 20 μM, and compounds at 20 μM. Plates were incubated at 25° C. in a Tecan Nano F200 plate reader with excitation at 438 nm using a 439 nm filter with a bandwidth of 8 nm, and emission at 495 nm with a 490 nm filter with a bandwidth of 10 nm. During the assay, plates were shaken initially for 5 seconds and subsequently for 3 seconds prior to fluorescent readings. Readings were performed every 20 minutes for up to 24 hours. The effect of compounds on CsgA aggregation in the assay was determined with data from 18 hours, following the plateau of the fluorescent signal in the untreated (no compound) control wells containing CsgA. Fluorescence values for each compound with CsgA were first adjusted by subtracting the average fluorescence of the compound in the absence of CsgA. These adjusted values were normalized by dividing them by the average fluorescence in the no-compound (i.e., untreated) control wells containing CsgA […], and the average normalized fluorescence with the compound was expressed as a percentage of the average fluorescence observed in untreated controls.

[2] = molecular target: T2, human α-synuclein (Homo sapiens, UniProt P37840); experiment: In vitro Thioflavin T assay of α-synuclein aggregation
T2 construct: made in house; host or cells: E. coli
Experimental: In Vitro Thioflavin T Assay to Determine the Effects of Compounds on α-Synuclein Aggregation.
The ammonium sulfate pellet was washed with an equal volume of 100 mM ammonium acetate in ethanol, pelleted via centrifugation, washed twice with ethanol, dried overnight, resuspended in 10 mM Tris pH 7.4, and passed through a 50 kDa cut-off column. The assay was conducted in 96-well black microplates with a single 2 mm bead in each well, 40 μM ThioflavinT, 1% DMSO, 50 μM α-synuclein, 100 mM sodium chloride, 9.3 mM potassium phosphate pH 7.3, 4.6 mM Tris pH 7.4 (added as the solvent for α-synuclein or independently for controls lacking α-synuclein), and compounds at 1 μM or 50 μM. […] Readings were performed hourly for up to 73 hours. The effect of compounds on α-synuclein aggregation in the assay was determined with data from 40 hours, following the plateau of the fluorescent signal in the untreated (no compound) control wells containing α-synuclein. Fluorescence values for each compound with α-synuclein were first adjusted by subtracting the average fluorescence of the compound in the absence of α-synuclein.

[3] = molecular target: T3, α-synuclein seeded by E. coli CsgA (Homo sapiens, UniProt P37840); experiment: In vitro Thioflavin T assay of CsgA-seeded α-synuclein aggregation; details: compounds at 50 μM
T3 construct: made in house; host or cells: E. coli NEB 3016 slyD::kan (CsgA, pET11d); E. coli (α-synuclein)
Experimental: In Vitro Thioflavin T Assay to Determine the Effects of Compounds on CsgA-Seeded α-Synuclein Aggregation.
To induce over-expression of CsgA, 0.5 mM IPTG was added to cultures with an optical density at 600 nm (OD600) of 0.8-1, and induced cells were cultured at 37° C. for 1 hour prior to harvest via centrifugation. […] Buffers with imidazole were freshly prepared prior to the protein purification. Purified CsgA was passed through a 30 kDa molecular weight cut-off filter and through a desalting column. All steps of the CsgA purification in the absence of guanidine hydrochloride were conducted in rapid succession with as little delay as possible. […] The ammonium sulfate pellet was washed with an equal volume of 100 mM ammonium acetate in ethanol, pelleted via centrifugation, washed twice with ethanol, dried overnight, resuspended in 10 mM Tris pH 7.4, and passed through a 50 kDa cut-off column. The assay was conducted in 96-well black microplates with a single glass 2 mm bead per well, 40 μM ThioflavinT, 1% DMSO, 2 μM CsgA, 50 μM α-synuclein, 100 mM sodium chloride, 9.3 mM potassium phosphate pH 7.3, and compounds at 50 μM. […] The effect of compounds on CsgA-seeded α-synuclein aggregation in the assay was determined with data from 40 hours, following the plateau of the fluorescent signal in the untreated (no compound) control wells containing CsgA and α-synuclein. Fluorescence values for each compound with CsgA and α-synuclein were first adjusted by subtracting the average fluorescence of the compound in the absence of CsgA and α-synuclein.

[4] = read-out: Inhibition of Aggregation CsgA (compound activity range), compounds at 20 μM, CsgA at 20 μM, ThT fluorescence at 18 hours
[5] = read-out: Inhibition of Aggregation CsgA, compounds at 20 μM, CsgA at 20 μM, ThT fluorescence at 18 hours
[6] = compounds at 50 μM, 50 μM α-synuclein, ThT fluorescence at 40 hours, read-out: Inhibition of Aggregation αSyn
[7] = compounds at 50 μM, 50 μM α-synuclein, ThT fluorescence at 40 hours, read-out: Inhibition of Aggregation αSyn (compound activity range)
[8] = 2 μM CsgA, 50 μM α-synuclein, ThT fluorescence at 40 hours, read-out: Inhibition of Aggregation CsgA-seeded αSyn
[9] = 2 μM CsgA, 50 μM α-synuclein, ThT fluorescence at 40 hours, read-out: Inhibition of Aggregation CsgA-seeded αSyn (compound activity range)

T1 sequence (P28307 23-151): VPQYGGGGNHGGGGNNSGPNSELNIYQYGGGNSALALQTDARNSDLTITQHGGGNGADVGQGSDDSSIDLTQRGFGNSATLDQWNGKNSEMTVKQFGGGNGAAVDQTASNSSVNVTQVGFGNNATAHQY

Structure (SMILES): CCCCCCCCCCCCOC(=O)c1cc(O)c(O)c(O)c1 [lauryl gallate, dodecyl 3,4,5-trihydroxybenzoate]
- Effect on CsgA aggregation (in words) ([1]; compounds at 20 μM): did not appear to inhibit CsgA aggregation
- inhibition at 20 µM [1, 4]: -10 to 10%
- inhibition at 20 µM [1, 5]: 1%
- inhibition at 50 µM [2, 6]: 33%
- inhibition at 50 µM [2, 7]: 30 to 60%
- Inhibition of Aggregation CsgA-seeded αSyn (compound activity range) ([3]; 2 μM CsgA, 50 μM α-synuclein, ThT fluorescence at 40 hours): +%
- inhibition at 50 µM [3, 8]: 24%
- inhibition at 50 µM [3, 9]: 10 to 30%

Structure (SMILES): COc1cc(O)ccc1O [methoxy-hydroquinone, 2-methoxybenzene-1,4-diol]
- Inhibition of Aggregation CsgA (compound activity range) ([1]; compounds at 20 μM, CsgA at 20 μM, ThT fluorescence at 18 hours, 20 µM): (++) to (+++)
- inhibition at 20 µM [1, 4]: 30 to 60%
- inhibition at 20 µM [1, 5]: 50%
- inhibition at 50 µM [2, 6]: 100%
- inhibition at 50 µM [2, 7]: > 60%
- inhibition at 50 µM [3, 8]: 80%

Structure (SMILES): O=c1c(O)c(-c2ccc(O)cc2O)oc2cc(O)cc(O)c12 [morin, 2-(2,4-dihydroxyphenyl)-3,5,7-trihydroxychromen-4-one]
- inhibition at 20 µM [1, 4]: > 60%
- inhibition at 20 µM [1, 5]: 69%
- inhibition at 50 µM [2, 6]: 88%
- inhibition at 50 µM [2, 7]: > 60%
- inhibition at 50 µM [3, 8]: 70%

Structure (SMILES): O=C(CCc1ccc(O)cc1)c1c(O)cc(O)cc1O [phloretin, 3-(4-hydroxyphenyl)-1-(2,4,6-trihydroxyphenyl)propan-1-one]
- inhibition at 20 µM [1, 4]: 10 to 30%
- inhibition at 20 µM [1, 5]: 18%
- inhibition at 50 µM [2, 6]: 46%
- inhibition at 50 µM [2, 7]: 30 to 60%
- inhibition at 50 µM [3, 8]: 21%
- inhibition at 50 µM [3, 9]: 10 to 30%

Structure (SMILES): Cc1ccc(C(C)C)c(O)c1 [thymol, 5-methyl-2-(propan-2-yl)phenol]
- Effect on CsgA aggregation (in words) ([1]; compounds at 20 μM): little to no effect
- inhibition at 20 µM [1, 4]: -10 to 10%
- inhibition at 20 µM [1, 5]: -4%
- inhibition at 50 µM ([2]; read-out: Inhibition of Aggregation αSyn): -21%
- inhibition at 50 µM ([2]; read-out: Inhibition of Aggregation αSyn (compound activity range)): < -10%
- Effect on CsgA-seeded α-synuclein aggregation (in words) [3]: little to no effect
- inhibition at 50 µM [3, 8]: 9%
- inhibition at 50 µM [3, 9]: -10 to 10%
